These results are taken from PubChem BioAssay (NCI).

Experiment in all cases: NCI tumour cell line growth inhibition, 48 h
Experiment [1] concerns U251 CNS.
The test system of experiment [2] is SR leukemia.
For experiment [3], the system named is SW-620 colon.
Experiment [4] has as its system NCI-H226 lung.
The subject of experiment [5] is 786-0 renal.
Experiment [6] has as its system HL-60(TB) leukemia.
Experiment [7] deals with OVCAR-5 ovarian.
Experiment [8] deals with NCI/ADR-RES ovarian.
In experiment [9] the test system is HS 578T breast.
In experiment [10] the test system is DU-145 prostate.

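Dose response: 5 concentrations. Exposure: 48 h. Format: 96-well plates. Endpoint: linear interpolation; highest concentration if not reached. GI50: concentration for 50% inhibition of growth. Definition used: TGI = concentration required for complete inhibition of growth.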 Where only a bound is given, the exact number is not on record here.

For `CC1=NNC(=O)C2CCC(=O)N12` (stereo not drawn), the TGI in [1], in experiment [2], in experiment [3], in experiment [4], in experiment [5] and in experiment [6] was > 100 µM in each case.
In the case of `COc1cc(C(Cc2ccccc2)NC(C)=O)oc(=O)c1` (stereo not drawn), the TGI in experiment [1], in [3], in experiment [4], in experiment [5], in experiment [7] and in experiment [6] was > 100 µM throughout.
Take `CCN(CC)CCOc1ccc(-c2nc3cc(Cl)ccc3s2)cc1`: the GI50 in experiment [1] is 1.58 µM; in [8], 1.97 µM; in experiment [3], 1.53 µM; in experiment [4] it was 2.02 µM; in experiment [5], 1.68 µM; in experiment [7] it was 1.6 µM. The figures for the GI50 in experiment [9] and in [6] were 1.62 µM and 1.56 µM, respectively. Moreover, the TGI was 2.99 µM in [1]; 3.87 µM in experiment [8]; 2.93 µM in experiment [3]; 4.43 µM in experiment [4]; 3.14 µM in experiment [5]; 3.09 µM in experiment [7]. Moreover, the TGI in experiment [9] was 3.72 µM; in [6] it was 5.12 µM.
`[N-]=[N+]=NC12CC3C4CC5CC3C(C1)C(C5)C4C2`: the TGI in experiment [1], in experiment [2], in experiment [3], in experiment [4], in [5] and in [7] was > 100 µM in each case.
In the case of `CCN1CCN(C(c2ccc(C(F)(F)F)cc2)c2ccc3cccnc3c2O)CC1` (stereo not drawn), the GI50 is 0.658 µM in [1]; 0.835 µM in experiment [2]; 1.77 µM in experiment [8]; 5.56 µM in [10]; 4.42 µM in experiment [3]; 3.09 µM in experiment [4]. In addition, the GI50 was 2.34 µM in experiment [5], 2.61 µM in experiment [7] and 2.09 µM in [6]. The TGI came to 11.4 µM in experiment [1]; 11 µM in experiment [2]; 10.9 µM in experiment [8]; 18.7 µM in [10]; 19.9 µM in [3]; 13.7 µM in experiment [4]. The values for the TGI in [5], in [7] and in [6] were 7.5 µM, 14.6 µM and 5.6 µM, respectively.
Take `CC(C)c1ccccc1NC(=O)CCc1n[nH]c(=S)o1`: the TGI in [1] was > 100 µM; in experiment [2] it was > 100 µM; in [3], > 56 µM; in [4], > 100 µM; in [5], > 100 µM; in experiment [7], > 100 µM. For the same compound, the TGI in [6] was > 89.2 µM.
Regarding `S=C(Nc1ccccc1)N(/N=C/C=C/c1ccccc1)c1nnc(-c2ccccc2)c(-c2ccccc2)n1`, the TGI is > 100 µM in experiment [1]; > 100 µM in experiment [3]; > 100 µM in experiment [4]; > 100 µM in experiment [5]; > 100 µM in experiment [7]; 52.4 µM in experiment [6].
For the compound `CCC[CH2][Sn]1([CH2]CCC)[O]N=C(c2ccccc2)C(c2ccccc2)[O]1` (stereo not drawn), the GI50 in experiment [1] is 1.54 µM; in [2], 0.574 µM; in experiment [3], 0.989 µM; in experiment [4] it was 2.09 µM; in experiment [5], 1.45 µM; in [7] it was 2.84 µM. Besides, the GI50 in experiment [6] was 0.263 µM. Also, the TGI in experiment [1] is 2.9 µM; in experiment [2] it was 3.59 µM; in experiment [3], 2.27 µM; in [4], 5.59 µM; in experiment [5], 2.83 µM; in experiment [7], 9.31 µM. The same compound showed a TGI in experiment [6] of 1.42 µM.
With `Cn1c2c(c3ccccc31)C1CCCCCCC1C1C(=O)OC(=O)C21` (stereo not drawn), the TGI in experiment [1] was > 100 µM; in experiment [2], 87.4 µM; in experiment [3] it was > 100 µM; in experiment [4], > 100 µM; in experiment [5], > 100 µM; in experiment [7] it was > 100 µM. In addition, in experiment [6], the TGI was 63.1 µM.
For the compound `O=[N+]([O-])c1ccc(C2=Nn3cnnc3SC2)o1`, the TGI worked out at 30.1 µM in experiment [1]; 39.4 µM in [2]; 25.3 µM in experiment [3]; 67.2 µM in experiment [4]; 32.1 µM in experiment [5]; 36.8 µM in [7]. The same compound returned a TGI in experiment [6] of 37.6 µM.
For `O=C(OC(CNc1cc(=O)n(Cc2ccccc2)c(=O)n1Cc1ccccc1)CN1CCCC1)c1ccccc1` (stereo not drawn), the GI50 in experiment [1] is > 100 µM; in experiment [8], > 100 µM; in experiment [10], 1.9 µM; in experiment [3], > 100 µM; in [4], 81.8 µM; in experiment [5], > 100 µM. In addition, the GI50 in [7] and in experiment [9] was > 100 µM each time. The TGI in [1], in experiment [8], in [10], in [3], in [4] and in experiment [5] was > 100 µM each time. In addition, the TGI in experiment [7] and in experiment [9] was > 100 µM throughout.
Consider `COc1cccc(/C=C/c2cc(OC)c(OC)c(OC)c2)c1`, for which the TGI in experiment [1], in experiment [2], in [3], in experiment [4], in experiment [5] and in experiment [7] was > 100 µM each time.
For the compound `CN(C)c1nc2ccccc2[nH]1`, the TGI in experiment [1], in experiment [3], in experiment [5], in experiment [7] and in experiment [6] was > 100 µM each time.
For the compound `NNC(=S)N/N=C(\CC1OC(=O)c2ccccc21)c1ccccc1O` (stereo not drawn), the TGI in [1] is 56.2 µM; in [2], 46.4 µM; in [3], > 100 µM; in [4] it was 95.4 µM; in experiment [5], > 100 µM; in experiment [7], 33.9 µM. The TGI in experiment [6] was > 100 µM.
`Cc1ccc(NC(=O)C(=O)C(C(=O)c2ccc3ccccc3c2)C2OC(=O)c3ccccc32)cc1C` (stereo not drawn): the TGI was 33.2 µM in [1]; 63.7 µM in [3]; 11 µM in experiment [4]; 23.8 µM in experiment [5]; 71.3 µM in [7]; 44.9 µM in [6].
